Laboratory results reported in patent US20260070945A1, “MACROCYCLIC IMMUNOMODULATORS” (Bristol-Myers Squibb Company, priority 2022, published 2026).
*1 amine or outer side, *2 acyl side, *3 side chain or, on linkers, in order; H or OH if unused. Where a SMILES comes first, the peptide text is derived from it. Bridges are numbered along the chain shown (N, C = ends). [ ]: non-standard residue; d: D form. The star is where a group is joined. ξ: configuration not given here. Phe(4-COOH) = N[C@@H](Cc1ccc(C(=O)O)cc1)C(=O)O; Bip = N[C@@H](Cc1ccc(-c2ccccc2)cc1)C(=O)O; Phe(3-Me) = Cc1cccc(C[C@H](N)C(=O)O)c1; NMeAEEA = CN(CCOCCOCC(=O)[*:2])[*:1]; Cha = N[C@@H](CC1CCCCC1)C(=O)O; Cit = NC(=O)NCCC[C@H](N)C(=O)O; Thr(3ξ) = CC(O)[C@H](N)C(=O)O; hSer = N[C@@H](CCO)C(=O)O; Carboxymethyl = O=C(O)C*; NMeA = CN[C@@H](C)C(=O)O; Aun = NCCCCCCCCCCC(=O)O; Dab = NCC[C@H](N)C(=O)O

The compounds below were run against T1, PD-1/PD-L1 interaction (PE-labeled human PD-L1-Ig binding to Jurkat cell line over-expressing human PD-1) (Homo sapiens, UniProt Q15116) (assay: Jurkat-PD-1 Cell Binding High-Content Screening Assay (CBA)). Conditions: Jurkat-hPD-1 cells, PE-labeled PD-L1-Ig 20 nM final; read-out: Jurkat HPD1 PDL1 IC50.
T1 construct: expressed in transfected cells; host or cells: Jurkat
Procedure, shortened: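 Binding of 20 nM (final) PE-tagged PD-L1-Ig to compound-pretreated Jurkat-hPD-1 cells was measured by high-content imaging after 1 h. Pretreatment ran 2 h at 37 °C in DMEM with 10% fetal calf serum.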

T1 sequence (Q15116 25-288): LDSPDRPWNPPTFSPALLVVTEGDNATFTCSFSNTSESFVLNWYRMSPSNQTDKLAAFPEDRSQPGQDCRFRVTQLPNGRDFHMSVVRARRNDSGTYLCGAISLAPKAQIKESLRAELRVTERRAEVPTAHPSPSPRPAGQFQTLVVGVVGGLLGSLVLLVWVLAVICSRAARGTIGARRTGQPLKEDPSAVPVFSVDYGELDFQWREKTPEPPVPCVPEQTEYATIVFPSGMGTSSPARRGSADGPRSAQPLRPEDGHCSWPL

Row | IC50 | SMILES
1 | 32.5 nM | Cc1cccc(C[C@@H]2NC(=O)[C@H](CC(=O)O)NC(=O)[C@H](Cc3ccc(OCC(=O)O)cc3)NC(=O)[C@H](CCCNC(=N)N)NC(=O)CSC[C@@H](C(=O)N[C@@H](CCN)C(=O)NCCCCCCCCCCC(=O)O)NC(=O)[C@H](C(C)O)NC(=O)[C@H](C(C)C)NC(=O)[C@H](CC3CCCCC3)NC(=O)[C@H](CCN)NC(=O)[C@@H](CC(C)C)NC(=O)[C@H](C)N(C)C(=O)[C@H](Cc3ccc(OCC(=O)O)cc3)NC(=O)[C@H](Cc3ccc(-c4ccccc4)cc3)NC(=O)[C@H](CCCNC(N)=O)NC2=O)c1 (stereo partly drawn) [Example 2349] ({CH2CO}-RY(Carboxymethyl)D[Phe(3-Me)][Cit][Bip]Y(Carboxymethyl)[NMeA][dL][Dab][Cha]V[Thr(3ξ)]C[Dab][Aun]-OH; thioether N-14)
2 | 5.6 nM | Cc1cccc(C[C@@H]2NC(=O)[C@H](CC(=O)O)NC(=O)[C@H](Cc3ccc(OCC(=O)O)cc3)NC(=O)[C@H](CCCNC(=N)N)NC(=O)CSC[C@@H](C(=O)N[C@@H](CCN)C(=O)NCCCCCCCCCCC(=O)O)NC(=O)[C@H](CCO)NC(=O)[C@H](C(C)C)NC(=O)[C@H](CC3CCCCC3)NC(=O)[C@H](CCN)NC(=O)[C@@H](CC(C)C)NC(=O)[C@H](C)N(C)C(=O)[C@H](Cc3ccc(OCC(=O)O)cc3)NC(=O)[C@H](Cc3ccc(-c4ccccc4)cc3)NC(=O)[C@H](Cc3ccc(C(=O)O)cc3)NC2=O)c1 [Example 2350] ({CH2CO}-RY(Carboxymethyl)D[Phe(3-Me)][Phe(4-COOH)][Bip]Y(Carboxymethyl)[NMeA][dL][Dab][Cha]V[hSer]C[Dab][Aun]-OH; thioether N-14)
3 | 14.5 nM | Cc1cccc(C[C@@H]2NC(=O)[C@H](CC(=O)O)NC(=O)[C@H](Cc3ccc(OCC(=O)O)cc3)NC(=O)[C@H](C(C)O)NC(=O)CSC[C@@H](C(=O)N[C@@H](CCN)C(=O)NCCCCCCCCCCC(=O)O)NC(=O)[C@H](CCO)NC(=O)[C@H](C(C)C)NC(=O)[C@H](CC3CCCCC3)NC(=O)[C@H](CCN)NC(=O)[C@@H](CC(C)C)NC(=O)[C@H](C)N(C)C(=O)[C@H](Cc3ccc(OCC(=O)O)cc3)NC(=O)[C@H](Cc3ccc(-c4ccccc4)cc3)NC(=O)[C@H](Cc3ccc(C(=O)O)cc3)NC2=O)c1 (stereo partly drawn) [Example 2352] ({CH2CO}-[Thr(3ξ)]Y(Carboxymethyl)D[Phe(3-Me)][Phe(4-COOH)][Bip]Y(Carboxymethyl)[NMeA][dL][Dab][Cha]V[hSer]C[Dab][Aun]-OH; thioether N-14)
4 | 21.5 nM | Cc1cccc(C[C@@H]2NC(=O)[C@H](CC(=O)O)NC(=O)[C@H](Cc3ccc(OCC(=O)O)cc3)NC(=O)[C@H](C(C)O)NC(=O)CSC[C@@H](C(=O)N[C@@H](CCN)C(=O)NCCCCCCCCCCC(=O)O)NC(=O)[C@H](C(C)O)NC(=O)[C@H](C(C)C)NC(=O)[C@H](CC3CCCCC3)NC(=O)[C@H](CCN)NC(=O)[C@@H](CC(C)C)NC(=O)[C@H](C)N(C)C(=O)[C@H](Cc3ccc(OCC(=O)O)cc3)NC(=O)[C@H](Cc3ccc(-c4ccccc4)cc3)NC(=O)[C@H](Cc3ccc(C(=O)O)cc3)NC2=O)c1 (stereo partly drawn) [Example 2353] ({CH2CO}-[Thr(3ξ)]Y(Carboxymethyl)D[Phe(3-Me)][Phe(4-COOH)][Bip]Y(Carboxymethyl)[NMeA][dL][Dab][Cha]V[Thr(3ξ)]C[Dab][Aun]-OH; thioether N-14)
5 | 21.4 nM | Cc1cccc(C[C@@H]2NC(=O)[C@H](CC(=O)O)NC(=O)[C@H](Cc3ccc(OCC(=O)O)cc3)NC(=O)[C@H](C(C)O)NC(=O)CSC[C@@H](C(=O)N[C@@H](CCN)C(=O)NCCCCCCCCCCC(=O)O)NC(=O)[C@H](C(C)O)NC(=O)[C@H](C(C)C)NC(=O)[C@H](CC3CCCCC3)NC(=O)[C@H](CCN)NC(=O)[C@@H](CC(C)C)NC(=O)[C@H](C)N(C)C(=O)[C@H](Cc3ccc(OCC(=O)O)cc3)NC(=O)[C@H](Cc3ccc(-c4ccccc4)cc3)NC(=O)[C@H](CCCNC(N)=O)NC2=O)c1 (stereo partly drawn) [Example 2354] ({CH2CO}-[Thr(3ξ)]Y(Carboxymethyl)D[Phe(3-Me)][Cit][Bip]Y(Carboxymethyl)[NMeA][dL][Dab][Cha]V[Thr(3ξ)]C[Dab][Aun]-OH; thioether N-14)
6 | 45.3 nM | Cc1cccc(C[C@@H]2NC(=O)[C@H](CC(=O)O)NC(=O)[C@H](Cc3ccc(OCC(=O)O)cc3)NC(=O)[C@H](C(C)O)NC(=O)CSC[C@@H](C(=O)N(C)CCOCCOCC(=O)NCCCCCCCCCCC(=O)O)NC(=O)[C@H](C(C)C)NC(=O)[C@H](C(C)C)NC(=O)[C@H](CC3CCCCC3)NC(=O)[C@H](CCN)NC(=O)[C@@H](CC(C)C)NC(=O)[C@H](C)N(C)C(=O)[C@H](CCCNC(N)=O)NC(=O)[C@H](Cc3ccc(-c4ccccc4)cc3)NC(=O)[C@H](C(C)C)NC2=O)c1 (stereo partly drawn) [Example 2355] ({CH2CO}-[Thr(3ξ)]Y(Carboxymethyl)D[Phe(3-Me)]V[Bip][Cit][NMeA][dL][Dab][Cha]VVC[NMeAEEA][Aun]-OH; thioether N-14)
7 | 34.7 nM | Cc1cccc(C[C@@H]2NC(=O)[C@H](CC(=O)O)NC(=O)[C@H](Cc3ccc(OCC(=O)O)cc3)NC(=O)[C@H](CCCNC(=N)N)NC(=O)CSC[C@@H](C(=O)N(C)CCOCCOCC(=O)NCCCCCCCCCCC(=O)O)NC(=O)[C@H](C(C)C)NC(=O)[C@H](C(C)C)NC(=O)[C@H](CC3CCCCC3)NC(=O)[C@H](CCN)NC(=O)[C@@H](CC(C)C)NC(=O)[C@H](C)N(C)C(=O)[C@H](CCCNC(N)=O)NC(=O)[C@H](Cc3ccc(-c4ccccc4)cc3)NC(=O)[C@H](C(C)C)NC2=O)c1 [Example 2356] ({CH2CO}-RY(Carboxymethyl)D[Phe(3-Me)]V[Bip][Cit][NMeA][dL][Dab][Cha]VVC[NMeAEEA][Aun]-OH; thioether N-14)
8 | 66.7 nM | Cc1cccc(C[C@@H]2NC(=O)[C@H](CC(=O)O)NC(=O)[C@H](Cc3ccc(OCC(=O)O)cc3)NC(=O)[C@H](C(C)O)NC(=O)CSC[C@@H](C(=O)N(C)CCOCCOCC(=O)NCCCCCCCCCCC(=O)O)NC(=O)[C@H](CCC(N)=O)NC(=O)[C@H](C(C)C)NC(=O)[C@H](CC3CCCCC3)NC(=O)[C@H](CCN)NC(=O)[C@@H](CC(C)C)NC(=O)[C@H](C)N(C)C(=O)[C@H](C(C)C)NC(=O)[C@H](Cc3ccc(-c4ccccc4)cc3)NC(=O)[C@H](C(C)C)NC2=O)c1 (stereo partly drawn) [Example 2357] ({CH2CO}-[Thr(3ξ)]Y(Carboxymethyl)D[Phe(3-Me)]V[Bip]V[NMeA][dL][Dab][Cha]VQC[NMeAEEA][Aun]-OH; thioether N-14)
9 | 16.6 nM | CC(=O)NCCCC[C@@H]1NC(=O)[C@H](Cc2ccc(-c3ccccc3)cc2)NC(=O)[C@H](C(C)C)NC(=O)[C@H](Cc2cccc(C)c2)NC(=O)[C@H](CC(=O)O)NC(=O)[C@H](Cc2ccc(OCC(=O)O)cc2)NC(=O)[C@H](C(C)O)NC(=O)CSC[C@@H](C(=O)N(C)CCOCCOCC(=O)NCCCCCCCCCCC(=O)O)NC(=O)[C@H](C(C)C)NC(=O)[C@H](C(C)C)NC(=O)[C@H](CC2CCCCC2)NC(=O)[C@H](CCN)NC(=O)[C@@H](CC(C)C)NC(=O)[C@H](C)N(C)C1=O (stereo partly drawn) [Example 2358] ({CH2CO}-[Thr(3ξ)]Y(Carboxymethyl)D[Phe(3-Me)]V[Bip]K(Ac)[NMeA][dL][Dab][Cha]VVC[NMeAEEA][Aun]-OH; thioether N-14)
10 | 26.3 nM | Cc1cccc(C[C@@H]2NC(=O)[C@H](CC(=O)O)NC(=O)[C@H](Cc3ccc(OCC(=O)O)cc3)NC(=O)[C@H](C(C)O)NC(=O)CSC[C@@H](C(=O)N(C)CCOCCOCC(=O)NCCCCCCCCCCC(=O)O)NC(=O)[C@H](CCCNC(N)=O)NC(=O)[C@H](C(C)C)NC(=O)[C@H](CC3CCCCC3)NC(=O)[C@H](CCN)NC(=O)[C@@H](CC(C)C)NC(=O)[C@H](C)N(C)C(=O)[C@H](C(C)C)NC(=O)[C@H](Cc3ccc(-c4ccccc4)cc3)NC(=O)[C@H](C(C)C)NC2=O)c1 (stereo partly drawn) [Example 2359] ({CH2CO}-[Thr(3ξ)]Y(Carboxymethyl)D[Phe(3-Me)]V[Bip]V[NMeA][dL][Dab][Cha]V[Cit]C[NMeAEEA][Aun]-OH; thioether N-14)
11 | 26.9 nM | Cc1cccc(C[C@@H]2NC(=O)[C@H](CC(=O)O)NC(=O)[C@H](Cc3ccc(OCC(=O)O)cc3)NC(=O)[C@H](CCCNC(=N)N)NC(=O)CSC[C@@H](C(=O)N[C@H](CC(N)=O)C(=O)NCCCCCCCCCCC(=O)O)NC(=O)[C@H](C(C)C)NC(=O)[C@H](C(C)C)NC(=O)[C@H](CC3CCCCC3)NC(=O)[C@H](CCN)NC(=O)[C@@H](CC(C)C)NC(=O)[C@H](C)N(C)C(=O)[C@H](Cc3ccc(OCC(=O)O)cc3)NC(=O)[C@H](Cc3ccc(-c4ccccc4)cc3)NC(=O)[C@H](Cc3ccc(OCC(=O)O)cc3)NC2=O)c1 [Example 2360] ({CH2CO}-RY(Carboxymethyl)D[Phe(3-Me)]Y(Carboxymethyl)[Bip]Y(Carboxymethyl)[NMeA][dL][Dab][Cha]VVC[dN][Aun]-OH; thioether N-14)
12 | 18.3 nM | Cc1cccc(C[C@@H]2NC(=O)[C@H](CC(=O)O)NC(=O)[C@H](Cc3ccc(OCC(=O)O)cc3)NC(=O)[C@H](C(C)O)NC(=O)CSC[C@@H](C(=O)N[C@H](CC(N)=O)C(=O)NCCCCCCCCCCC(=O)O)NC(=O)[C@H](C(C)C)NC(=O)[C@H](C(C)C)NC(=O)[C@H](CC3CCCCC3)NC(=O)[C@H](CCN)NC(=O)[C@@H](CC(C)C)NC(=O)[C@H](C)N(C)C(=O)[C@H](Cc3ccc(OCC(=O)O)cc3)NC(=O)[C@H](Cc3ccc(-c4ccccc4)cc3)NC(=O)[C@H](Cc3ccc(OCC(=O)O)cc3)NC2=O)c1 (stereo partly drawn) [Example 2361] ({CH2CO}-[Thr(3ξ)]Y(Carboxymethyl)D[Phe(3-Me)]Y(Carboxymethyl)[Bip]Y(Carboxymethyl)[NMeA][dL][Dab][Cha]VVC[dN][Aun]-OH; thioether N-14)
13 | 40.2 nM | Cc1cccc(C[C@@H]2NC(=O)[C@H](CC(=O)O)NC(=O)[C@H](Cc3ccc(OCC(=O)O)cc3)NC(=O)[C@H](CCCNC(=N)N)NC(=O)CSC[C@@H](C(=O)N[C@H](CC(N)=O)C(=O)NCCCCCCCCCCC(=O)O)NC(=O)[C@H](CCO)NC(=O)[C@H](C(C)C)NC(=O)[C@H](CC3CCCCC3)NC(=O)[C@H](CCN)NC(=O)[C@@H](CC(C)C)NC(=O)[C@H](C)N(C)C(=O)[C@H](Cc3ccc(OCC(=O)O)cc3)NC(=O)[C@H](Cc3ccc(-c4ccccc4)cc3)NC(=O)[C@H](Cc3ccc(OCC(=O)O)cc3)NC2=O)c1 [Example 2362] ({CH2CO}-RY(Carboxymethyl)D[Phe(3-Me)]Y(Carboxymethyl)[Bip]Y(Carboxymethyl)[NMeA][dL][Dab][Cha]V[hSer]C[dN][Aun]-OH; thioether N-14)
